# Measurements from ChEMBL document CHEMBL1134127, “A mechanism-based affinity-labeling agent for possible use in isolating N-acetylglucosaminidase” (Bioorg Med Chem Lett, 2001).
# Assay: Inhibitory activity against O-linked N-acetyl-glucosaminidase (O-GlcNAc'ase)
# Design: species or system Rattus norvegicus
smiles,measurement,value
CC(=O)NC1[C@@H](O)[C@@H](O)C(CO)O[C@H]1SC1CC(=O)N(c2ccc(C(=O)c3ccccc3)cc2)C1=O (stereo partly specified),Ki,50 µM
